Data as given in PubChem BioAssay (NCI).
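Five concentrations, 48 hours, 96-well plates. The concentration for 50% growth inhibition is given as GI50. The concentration for full growth arrest is given as TGI.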

Tests used:
Experiment in all cases: NCI anticancer screen, dose series, 48 h
HCC-2998 colon = system: HCC-2998 colon
M14 melanoma = system: M14 melanoma
NCI-H226 lung = system: NCI-H226 lung
NCI-H522 lung = system: NCI-H522 lung
PC-3 prostate = system: PC-3 prostate
RPMI-8226 leukemia = system: RPMI-8226 leukemia
SF-539 CNS = system: SF-539 CNS
SK-MEL-2 melanoma = system: SK-MEL-2 melanoma
SK-MEL-28 melanoma = system: SK-MEL-28 melanoma
TK-10 renal = system: TK-10 renal

Compound	GI50 (HCC-2998 colon) [µM]	TGI (HCC-2998 colon) [µM]	GI50 (M14 melanoma) [µM]	TGI (M14 melanoma) [µM]	GI50 (NCI-H226 lung) [µM]	TGI (NCI-H226 lung) [µM]	GI50 (NCI-H522 lung) [µM]	TGI (NCI-H522 lung) [µM]	GI50 (PC-3 prostate) [µM]	TGI (PC-3 prostate) [µM]	GI50 (RPMI-8226 leukemia) [µM]	TGI (RPMI-8226 leukemia) [µM]	GI50 (SF-539 CNS) [µM]	TGI (SF-539 CNS) [µM]	GI50 (SK-MEL-2 melanoma) [µM]	TGI (SK-MEL-2 melanoma) [µM]	GI50 (SK-MEL-28 melanoma) [µM]	TGI (SK-MEL-28 melanoma) [µM]	GI50 (TK-10 renal) [µM]	TGI (TK-10 renal) [µM]
N#Cc1c(N)nc(NCc2ccccc2)c(C#N)c1-c1ccc(Cl)cc1Cl	> 100	> 100	> 53.4	> 100	> 100	> 100	> 68.7	> 100	55.7	> 100	33.5	> 100	> 100	> 100	> 77.2	> 100	> 100	> 100	> 84.3	> 100
Nc1nc(=O)n([C@@H]2CS[C@H](CO)O2)cc1F	> 100	> 100	> 100	> 100	> 100	> 100	> 100	> 100	> 100	> 100	> 100	> 100	> 100	> 100	> 100	> 100	> 100	> 100	> 100	> 100
CC(=O)c1cc(C(=O)c2ccc3c(c2)Sc2ccccc2N3)c2c(C)cccn12	1.65	> 100	0.198	5.5	1.95	> 52.3	0.0328	0.199	0.321	> 100	0.412	83.4	0.234	1.13	0.3	> 66.2	2.51	> 100	4.73	> 100
COc1cc(NCCN=C(N)NC(N)=NC(C)C)c2ncccc2c1	6.61	50.9	22.6	> 100	39.7	> 100	3.61	40.7	8.96	> 100	15.5	> 76.4	4.06	20	1.99	7.36	14.1	> 83.8	11.3	69.9
O=C(Nc1cc(Oc2cc(F)c(NC(=O)C3(C(=O)Nc4ccc(F)cc4)CC3)cc2F)ccn1)C1CC1	3.5	> 29.4	1.53	5.23	2.53	7.98	2.18	5.84	2.51	6.85	2.95	6.51	1.83	4.14	1.35	3.64	1.64	6.33	4.14	> 100
CC1=C[C@H]2C[C@H](C)[C@H]3CC[C@H](C)[C@]4(C1)C(=O)C(O)=C(C)C(=O)[C@@]324	19.6	47.2	29.7	> 100	33	> 100	19.8	83.4	18.4	56	13.1	32.4	52.6	> 100	32.3	> 100	26	> 100	47.4	> 100
O=S(=O)(Nc1ccc(F)c(Cl)c1)c1ccc(-c2cnc(C3CC3)o2)cc1	1.13	7.9	0.264	7.13	0.822	10.1	0.164	3.75	0.322	12.3	0.388	> 31.9	0.305	1.8	0.657	14	1.73	14.5	1.11	8.29
Cc1ccc(NCCN(C)C)c2c(=O)c3ccccc3sc12	1.57	2.92	1.59	3.05	1.83	3.96	1.89	5.38	1.97	5.13	1.67	4.21	1.59	2.97	2	4.31	1.71	3.11	2.34	5.45
Clc1ccccc1C(Nc1ncccn1)Nc1ncccn1	–	> 100	–	> 100	–	> 100	–	> 100	–	> 100	–	> 100	–	> 100	–	> 100	–	> 100	–	> 100
CCOC(=O)c1ccc2c(c1)[n+](=O)c(C(C)=O)c(C(F)(F)F)n2[O-]	1.05	2.45	1.7	3.67	1.8	3.93	1.8	3.84	0.885	2.38	1.45	4	1.71	3.31	1.89	5.22	2.87	10.1	1.39	3.25
Cc1cn(-c2ccc(S(C)(=O)=O)cc2)c(-c2ccc(Cl)cc2)n1	> 100	> 100	> 100	> 100	> 100	> 100	> 100	> 100	> 100	> 100	> 100	> 100	> 100	> 100	> 100	> 100	> 100	> 100	> 100	> 100
CCOC(=O)c1cnn2c3ccccc3n(S(=O)(=O)c3ccc(OC)cc3)c12	0.349	30.1	0.211	> 100	2.6	> 100	0.338	38.8	0.375	> 100	0.37	28.2	0.252	0.868	4.03	> 100	5.98	> 100	25.2	> 100
COc1cccc(C2C3=C(COC3=O)N(CCO)c3cc4c(cc32)OCO4)c1 (stereo not drawn)	0.211	1.2	0.25	> 11	23.2	> 50	0.051	0.187	0.265	> 50	0.706	> 50	0.36	–	0.142	0.43	> 50	> 50	0.725	–
C[C@@H]1COCCN1c1cc(C2([S@@](C)(=N)=O)CC2)nc(-c2ccnc3[nH]ccc23)n1	4.69	> 100	3.52	26.4	4.26	98.7	8.05	> 100	10.3	> 100	6.21	> 60.9	2.32	10.6	5.61	44.9	9.76	> 88.9	6.71	> 71.9
COc1ccc(Nc2nc3cc(N)cc(N)c3nc2-c2ccccc2)cc1OC	18.4	39.6	21	69.8	18.7	57.1	28.9	> 100	14	36	7.95	28.3	16.2	37.5	27.2	> 100	21.5	49.7	20.9	58.5
COc1cccc(/C(C)=N/NC(=O)CSc2nc3ccccc3c(=O)n2CCc2ccc(S(N)(=O)=O)cc2)c1	24	62.9	2.58	73	3.29	13	2.66	9.65	3.51	22.2	0.943	> 100	1.88	3.98	3.42	16.3	10.8	38.7	2.36	5.42
O=C(/C=C/C12c3ccccc3C(c3ccccc31)C1C(=O)NC(=O)C12)c1ccc(Cl)cc1 (stereo not drawn)	1.69	3.37	1.65	3.29	1.92	5	1.46	3.3	1.39	2.78	1.66	4.5	1.51	2.86	1.81	3.71	1.8	3.37	1.92	3.52
Nc1ccccc1C#C/C=C\C#Cc1c(F)c(F)c(F)c(F)c1F	19.4	37.6	15	29.4	11.3	26.7	11.9	31.3	16.6	43.3	1.25	21.7	20.9	47.1	26.3	88.9	17	38.4	20.1	40.7
